For 3 compounds, Kd results are on record in paper PMC10814857, “Functional Classification and Interaction Selectivity Landscape of the Human SH3 Domain Superfamily” (Cells, 2024).

pKd: −log10 of the molar value. Values joined by “and” are separate entries in the source; they are usually repeats but may differ in a detail not shown here. Equal values may be shown once. Peptide text beside a SMILES is read from it.

What all share (assay): Fluorescence polarization SH3 domain-PRP binding
Holding throughout (conditions): FP, 0.2 µM fluorescein-labeled peptide, SH3 domain 0-200 µM, Tris/HCl pH 7.5, 25 °C, quadratic fit

Experiment [1] addresses T1, ITSN1-4 SH3 domain (aa 1070-1138) (Homo sapiens, UniProt Q15811).
T1 construct: 1070-1138; GST (N); made in house; host or cells: Escherichia coli CodonPlus, Rosetta, BL21(DE3)
T1 sequence (Q15811 1070-1138): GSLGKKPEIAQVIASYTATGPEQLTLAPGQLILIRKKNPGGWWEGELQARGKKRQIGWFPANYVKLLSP
Put shortly: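 FP titration: 0.2 µM fluorescent PRP + GST-SH3 0–200 µM; 30 mM Tris/HCl pH 7.5, 5 mM MgCl2, 3 mM DTT, 25 °C. Ex 470/em 560 nm. Kd by quadratic binding-equation fit; errors from fitting.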

For experiment [2], the target named is T2, ITSN1-2 SH3 domain (aa 913-971) (Homo sapiens, UniProt Q15811).
T2 construct: 913-971; GST (N); made in house; host or cells: Escherichia coli CodonPlus, Rosetta, BL21(DE3)
T2 sequence (Q15811 913-971): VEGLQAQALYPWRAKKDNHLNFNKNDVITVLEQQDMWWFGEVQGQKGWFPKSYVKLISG
How it is done:
(§1) The interaction between fluorescein-labeled proline-rich peptides (0.2 µM) and increasing concentrations of SH3 domains (ranging from 0 to 200 µM) was measured in a buffer (containing 30 mM Tris/HCl (pH 7.5), 5 mM MgCl2, and 3 mM DTT at 25 °C) in a total volume of 200 µL using a Fluoromax 4 fluorimeter in polarization mode and a quartz glass fluorescence cuvette (Hellma Ultra-Micro Cuvette 105.250-QS, Thermo Fisher Scientific, Waltham, MA USA). Excitation was performed at 470 nm and emission was measured at 560 nm. Dissociation constants (Kd) were determined by fitting the concentration-dependent binding curve to a quadratic ligand binding equation.
(§2) Fluorescence polarization measurements were performed to determine the binding affinities of SH3 domain–PRP interaction pairs from the dot blot analysis. SH3 proteins were titrated at increasing concentrations against fluorescent PRPs, which were kept at a constant concentration of 0.2 µM. GRB2-2^W193K, which is defective in the binding of PRPs such as RP1, was used as a negative control as previously described. […] The resulting data (Figure S6) allowed the evaluation of equilibrium dissociation constants (Kd) for 45 interactions between the SH3 domains and the PRPs (Figure 2B; Table S6).
(§3) Figure S6. Interactions of the SH3 domains with fluorescent PRPs measured by fluorescence polarization.
(§4) Fluorescent peptides (0.2 µM) were titrated with increasing concentrations of the corresponding SH3 domains.
(§5) GRB2-2W193K, defective in the binding of PRPs such as RP1, was used as a negative control as previously described. The x-axis represents SH3 domain concentrations as GST fusion proteins in µM, while the y-axis represents fluorescence polarization. The equilibrium dissociation constants (Kd) for the respective measurements were determined by fitting the titration curves to a quadratic ligand-binding equation (solid lines). All Kd values are […]
(§6) Error bars are derived from the fitting errors.
(§7) (1 picture or pasted object on this page, not shown here)

The target of experiment [3] is T3, DLG2 SH3 domain (aa 536-606) (Homo sapiens, UniProt Q15700).
T3 construct: 536-606; GST (N); made in house; host or cells: Escherichia coli CodonPlus, Rosetta, BL21(DE3)
T3 sequence (Q15700 536-606): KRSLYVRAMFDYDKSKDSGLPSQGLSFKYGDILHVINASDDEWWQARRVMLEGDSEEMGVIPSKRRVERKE
As for the experimental part: as §1, §2, §3, §4, §5, §6, §7

Experiment [4] deals with T4, ABI1 SH3 domain (aa 446-505) (Homo sapiens, UniProt Q8IZP0).
T4 construct: 446-505; GST (N); made in house; host or cells: Escherichia coli CodonPlus, Rosetta, BL21(DE3)
As for the experimental part: as §1, §2, §3, §4, §5, §6, §7

The target of experiment [5] is T5, CRK-1 SH3 domain (aa 132-192) (Homo sapiens, UniProt P46108).
T5 construct: 132-192; GST (N); made in house; host or cells: Escherichia coli CodonPlus, Rosetta, BL21(DE3)
How it is done:
as §1, §2, §3, §4, §5, §6, §7

Experiment [6] addresses T6, ITSN1-3 SH3 domain (aa 1002-1060) (Homo sapiens, UniProt Q15811).
T6 construct: 1002-1060; GST (N); made in house; host or cells: Escherichia coli CodonPlus, Rosetta, BL21(DE3)
T6 sequence (Q15811 1002-1060): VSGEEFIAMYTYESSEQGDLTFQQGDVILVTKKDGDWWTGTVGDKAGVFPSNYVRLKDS
As for the experimental part:
as §1, §2, §3, §4, §5, §6, §7

Experiment [7] deals with T7, ARHGAP12 SH3 domain (aa 12-74) (Homo sapiens, UniProt Q8IWW6).
T7 construct: 12-74; GST (N); made in house; host or cells: Escherichia coli CodonPlus, Rosetta, BL21(DE3)
T7 sequence (Q8IWW6 12-74): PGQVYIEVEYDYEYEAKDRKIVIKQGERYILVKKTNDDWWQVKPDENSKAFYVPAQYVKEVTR
As for the experimental part: as §1, §2, §3, §4, §5, §6, §7

In experiment [8] the target is T8, BIN1 SH3 domain (aa 520-593) (Homo sapiens, UniProt O00499).
T8 construct: 520-593; GST (N); made in house; host or cells: Escherichia coli CodonPlus, Rosetta, BL21(DE3)
T8 sequence (O00499 520-593): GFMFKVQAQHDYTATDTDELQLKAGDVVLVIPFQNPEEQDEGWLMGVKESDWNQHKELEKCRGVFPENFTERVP
As for the experimental part:
as §1, §2, §3, §4, §5, §6, §7

Experiment [9] concerns the target T9, GRB2-1 SH3 domain (aa 1-58) (Homo sapiens, UniProt P62993).
T9 construct: 1-58; GST (N); made in house; host or cells: Escherichia coli CodonPlus, Rosetta, BL21(DE3)
As for the experimental part:
as §1, §2, §3, §4, §5, §6, §7

Experiment [10] deals with T10, ITSN1-1 SH3 domain (aa 740-806) (Homo sapiens, UniProt Q15811).
T10 construct: 740-806; GST (N); made in house; host or cells: Escherichia coli CodonPlus, Rosetta, BL21(DE3)
T10 sequence (Q15811 740-806): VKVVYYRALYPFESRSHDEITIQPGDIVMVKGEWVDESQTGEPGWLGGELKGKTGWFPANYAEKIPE
As for the experimental part: as §1, §2, §3, §4, §5, §6, §7

Experiment [11] deals with T11, GRB2-2 SH3 domain (aa 158-215) (Homo sapiens, UniProt P62993).
T11 construct: 158-215; GST (N); made in house; host or cells: Escherichia coli CodonPlus, Rosetta, BL21(DE3)
As for the experimental part:
as §1, §2, §3, §4, §5, §6, §7

Experiment [12] deals with T12, ARHGEF30 (OBSCN) SH3 domain (aa 5600-5667) (Homo sapiens, UniProt Q5VST9).
T12 construct: 5600-5667; GST (N); made in house; host or cells: Escherichia coli CodonPlus, Rosetta, BL21(DE3)
T12 sequence (Q5VST9 5600-5667): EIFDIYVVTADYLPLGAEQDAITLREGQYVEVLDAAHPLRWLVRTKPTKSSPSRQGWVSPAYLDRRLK
As for the experimental part:
as §1, §2, §3, §4, §5, §6, §7

T9 sequence (P62993 1-58): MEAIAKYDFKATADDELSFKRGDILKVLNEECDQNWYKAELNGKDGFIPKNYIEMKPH
T5 sequence (P46108 132-192): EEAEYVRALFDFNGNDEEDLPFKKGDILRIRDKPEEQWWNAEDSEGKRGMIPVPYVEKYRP
T11 sequence (P62993 158-215): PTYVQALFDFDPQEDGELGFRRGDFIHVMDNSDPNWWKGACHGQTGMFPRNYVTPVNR
T4 sequence (Q8IZP0 446-505): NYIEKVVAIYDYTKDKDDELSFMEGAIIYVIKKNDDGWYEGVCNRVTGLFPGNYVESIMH

In the case of `CC(C)C[C@H](NC(=O)[C@H](Cc1c[nH]cn1)NC(=O)[C@H](CC(C)C)NC(=O)[C@@H]1CCCN1C(=O)[C@H](CO)NC(=O)[C@H](CO)NC(=O)[C@@H](N)CO)C(=O)N[C@@H](CCC(N)=O)C(=O)N1CCC[C@H]1C(=O)N1CCC[C@H]1C(=O)N1CCC[C@H]1C(=O)N[C@@H](CC(C)C)C(=O)NCC(=O)N[C@@H](CCCCN)C(=O)N[C@@H](CCCCN)C(=O)O` [Peptide P6] (H-SSSPLHLQPPPLGKK-OH; N-terminus and C-terminus assumed), the pKd in experiment [1], in [2], in experiment [3], in experiment [4], in [5] and in [6] was less than 3.70 each time. Further, the pKd in experiment [7], in [8], in [9], in experiment [10], in [11] and in [12] was less than 3.70 throughout.

Regarding `CC[C@H](C)[C@H](NC(=O)[C@H](CCCCN)NC(=O)[C@H](CO)NC(=O)[C@@H]1CCCN1C(=O)[C@H](CO)NC(=O)[C@H](CO)NC(=O)[C@H](CCC(=O)O)NC(=O)[C@H](C)NC(=O)[C@@H]1CCCN1C(=O)[C@H](C)NC(=O)[C@H](CO)NC(=O)[C@H](CCC(=O)O)NC(=O)[C@@H]1CCCN1C(=O)[C@H](CCCNC(=N)N)NC(=O)[C@H](CCCNC(=N)N)NC(=O)[C@H](CCCNC(=N)N)NC(=O)[C@@H]1CCCN1C(=O)[C@@H]1CCCN1C(=O)[C@@H](NC(=O)[C@@H]1CCCN1C(=O)[C@@H]1CCCN1C(=O)[C@@H]1CCCN1C(=O)[C@@H](NC(=O)[C@@H]1CCCN1C(=O)[C@@H](NC(=O)[C@@H](N)CCC(=O)O)C(C)C)C(C)C)C(C)C)C(=O)O` [Peptide P3] (H-EVPVPPPVPPRRRPESAPAESSPSKI-OH), the pKd was less than 3.70 in experiment [1]; less than 3.70 in experiment [2]; less than 3.70 in experiment [3]; less than 3.70 in experiment [4]; 4.89 in experiment [5]; less than 3.70 in experiment [6]. The pKd in [7] is 4.86; in [8], less than 3.70; in experiment [9], 4.82; in [10], less than 3.70; in experiment [11] it was 4.92; in experiment [12] it was less than 3.70.

Take `C[C@H](N)C(=O)N[C@@H](Cc1ccccc1)C(=O)N[C@@H](Cc1ccccc1)C(=O)N1CCC[C@H]1C(=O)N[C@@H](CC(N)=O)C(=O)N[C@@H](CO)C(=O)N1CCC[C@H]1C(=O)N[C@@H](CO)C(=O)N1CCC[C@H]1C(=O)N[C@@H](Cc1ccccc1)C(=O)N[C@H](C(=O)N1CCC[C@H]1C(=O)N1CCC[C@H]1C(=O)N1CCC[C@H]1C(=O)N1CCC[C@H]1C(=O)N[C@@H](CCC(N)=O)C(=O)N[C@H](C(=O)N1CCC[C@H]1C(=O)N[C@@H](CO)C(=O)N1CCC[C@H]1C(=O)N[C@@H](Cc1c[nH]cn1)C(=O)NCC(=O)N[C@H](C(=O)O)[C@@H](C)O)[C@@H](C)O)[C@@H](C)O` [Peptide P7] (H-AFFPNSPSPFTPPPPQTPSPHGT-OH): the negative logarithm of the Kd (pKd) in experiment [1] was less than 3.70; in [2], less than 3.70; in [3], 4.23; in experiment [4], less than 3.70; in experiment [5], 4.74; in experiment [6] it was less than 3.70. The pKd is 6.70 and > 6.30 in experiment [7]; 4.92 in experiment [8]; less than 3.70 in [9]; less than 3.70 in experiment [10]; less than 3.70 in experiment [11]; 5.05 in experiment [12].
